Assay results published in ChEMBL document CHEMBL4359861, “Design, synthesis and anti-inflammatory evaluation of 3-amide benzoic acid derivatives as novel P2Y14 receptor antagonists” (Eur J Med Chem, 2019).
In brackets after ≈: the same amount, converted by molar mass. Blank lines part the entries; values can stand above or below the compound they belong to. Activity calls are given as the source filed them. The calls are words filed in the database; no cut-off is given here.

Key:
[1] = target: T1, P2Y purinoceptor 14 (Homo sapiens, UniProt Q15391); assay: Antagonist activity at human P2Y14R stably expressed in human forskolin treated THP1 cells assessed as reduction in P2Y14R agonist UDPG-induced inhibition of cAMP production incubated for 15 mins by competitive enzyme-linked immunoassay; type: functional, cell-based
T1 sequence (Q15391 whole entry): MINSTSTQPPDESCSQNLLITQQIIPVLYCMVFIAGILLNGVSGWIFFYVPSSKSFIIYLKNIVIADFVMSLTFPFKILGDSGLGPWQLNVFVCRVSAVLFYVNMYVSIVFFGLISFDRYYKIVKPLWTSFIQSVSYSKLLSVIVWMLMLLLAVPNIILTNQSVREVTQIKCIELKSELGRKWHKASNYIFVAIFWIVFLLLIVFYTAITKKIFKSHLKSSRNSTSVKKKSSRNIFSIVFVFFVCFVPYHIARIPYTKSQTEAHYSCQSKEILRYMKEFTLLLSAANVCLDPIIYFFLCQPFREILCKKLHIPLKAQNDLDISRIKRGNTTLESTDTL

[2] = target: T2, P2Y purinoceptor 14 (Homo sapiens) (UniProt Q15391); assay: Inhibition of P2Y14 in human THP1 cells assessed as reversal of MSU-induced reduction in cAMP production at 5 to 20 uM pretreated for 1 hr followed by MSU treatment and measured after 12 hrs by ELISA; type: functional, cell-based
T2 sequence (whole entry): T1 sequence (Q15391 whole entry)

[3] = test system: THP-1; assay: Inhibition of pyroptosis in human THP1 cells assessed as inhibition of MSU-induced increase in caspase1 level at 5 to 20 uM pretreated for 1 hr followed by MSU treatment and measured after 12 hrs by PI staining based flow cytometric analysis; type: functional, cell-based
[4] = test system: THP-1; assay: Inhibition of inflammasome in human THP1 cells assessed as reversal of MSU-induced increase in NLRP3 protein level at 5 to 20 uM pretreated for 1 hr followed by MSU treatment and measured after 12 hrs by Western blot analysis; type: functional, cell-based
[5] = test system: THP-1; assay: Inhibition of inflammasome in human THP1 cells assessed as reversal of MSU-induced increase in ASC protein level at 5 to 20 uM pretreated for 1 hr followed by MSU treatment and measured after 12 hrs by Western blot analysis; type: functional, cell-based
[6] = test system: THP-1; assay: Inhibition of inflammasome in human THP1 cells assessed as reversal of MSU-induced increase in caspase1 p20 protein level at 5 to 20 uM pretreated for 1 hr followed by MSU treatment and measured after 12 hrs by Western blot analysis; type: functional, cell-based
[7] = test system: THP-1; assay: Inhibition of inflammasome in human THP1 cells assessed as reversal of MSU-induced co-localization of NLRP3 at 5 to 20 uM pretreated for 1 hr followed by MSU treatment and measured after 12 hrs by DAPI staining based confocal laser scanning microscopic method; type: functional, cell-based
[8] = Solubility of compound in pH 7.4 PBS buffer vortex for 1 min followed by 10 mins sonication and further incubated for overnight under shaking condition by UV-vis absorption spectrometric method; type: physicochemical
[9] = Microsomal stability in human liver microsomes assessed as parent compound remaining at 20 uM measured for 10 to 120 mins in presence of NADPH by LC-MS/MS analysis; type: ADME, Microsome
[10] = Microsomal stability in rat liver microsomes assessed as parent compound remaining at 20 uM measured for 10 to 120 mins in presence of NADPH by LC-MS/MS analysis; type: ADME, Microsome
[11] = Ratio of solubility for test compound to solubility for PPTN; type: physicochemical
[12] = test system: THP-1; assay: Inhibition of pyroptosis in human THP1 cells assessed as inhibition of MSU-induced increase in IL-1beta level at 5 to 20 uM by ELISA; type: functional, cell-based
[13] = test system: THP-1; assay: Inhibition of pyroptosis in human THP1 cells assessed as inhibition of MSU-induced increase in caspase1 level at 10 uM pretreated for 1 hr followed by MSU treatment and measured after 12 hrs by PI staining based flow cytometric analysis; type: functional, cell-based
[14] = test system: THP-1; assay: Inhibition of inflammasome in human THP1 cells assessed as reversal of MSU-induced increase in NLRP3 protein level at 10 uM pretreated for 1 hr followed by MSU treatment and measured after 12 hrs by Western blot analysis; type: functional, cell-based
[15] = test system: THP-1; assay: Inhibition of inflammasome in human THP1 cells assessed as reversal of MSU-induced increase in ASC protein level at 10 uM pretreated for 1 hr followed by MSU treatment and measured after 12 hrs by Western blot analysis; type: functional, cell-based
[16] = test system: THP-1; assay: Inhibition of inflammasome in human THP1 cells assessed as reversal of MSU-induced increase in caspase1 p20 protein level at 10 uM pretreated for 1 hr followed by MSU treatment and measured after 12 hrs by Western blot analysis; type: functional, cell-based
[17] = test system: THP-1; assay: Inhibition of inflammasome in human THP1 cells assessed as reversal of MSU-induced co-localization of NLRP3 at 10 uM pretreated for 1 hr followed by MSU treatment and measured after 12 hrs by DAPI staining based confocal laser scanning microscopic method; type: functional, cell-based
[18] = test system: THP-1; assay: Inhibition of pyroptosis in human THP1 cells assessed as inhibition of MSU-induced increase in IL-1beta level at 10 uM by ELISA; type: functional, cell-based

Structure (SMILES): O=C(O)c1cc(NC(=O)c2ccc([N+](=O)[O-])cc2)cc(-c2ccc(C3CCNCC3)cc2)c1
- IC50 [1]: 5.06 nM

Structure (SMILES): O=C(O)c1cc(NC(=O)c2ccncc2)cc(-c2ccc(C3CCNCC3)cc2)c1
- IC50 [1]: 3.17 nM

Structure (SMILES): O=C(O)c1cc(NC(=O)c2ccccc2)cc(-c2ccc(C3CCNCC3)cc2)c1
- IC50 [1]: 4.95 nM

Structure (SMILES): O=C(O)c1cc(-c2ccc(C3CCNCC3)cc2)c2ccc(-c3ccc(C(F)(F)F)cc3)cc2c1 [PPTN]
- inhibition [13]: Active
- inhibition [14]: Active
- inhibition [15]: Active
- inhibition [16]: Active
- inhibition [17]: Active
- solubility thermodynamic [8]: < 5 µg/mL
- inhibition [18]: Active

Continued by falling IC50 [1], values first:

- IC50 [1]: 4.54 nM
Structure (SMILES): N#Cc1ccc(C(=O)Nc2cc(C(=O)O)cc(-c3ccc(C4CCNCC4)cc3)c2)cc1

- IC50 [1]: 4.35 nM
Structure (SMILES): O=C(O)c1cc(NC(=O)c2cnccn2)cc(-c2ccc(C3CCNCC3)cc2)c1

- IC50 [1]: 1.77 nM
- inhibition [2]: Active
- solubility thermodynamic [8]: 572 µg/mL (≈ 1380 µM)
- half-life at 20 µM [9]: > 1 h
- half-life at 20 µM [10]: > 1 h
- Ratio [11]: > 100
Structure (SMILES): Cc1ccc(C(=O)Nc2cc(C(=O)O)cc(-c3ccc(C4CCNCC4)cc3)c2)cc1
- inhibition [3]: Active
- inhibition [4]: Active
- inhibition [5]: Active
- inhibition [6]: Active
- inhibition [7]: Active
- inhibition [12]: Active
